From patent US6541509B2 (priority 2000, dated 2003)
Where two headings read alike, the source gives them in different places.

Experiments:
J7-T3-1.6 = test: cells; format: cell-based, mouse; settings: for IC50: J7-T3-1.6, 72 h, mean ± SE, read-out: IC50 (drug concentration that inhibits cell division by 50%); for Fold resistance (ratio of IC50 J7-T3-1.6 to J774.2): after 72 h
Protocol: (§1) The drug-sensitive mouse macrophage-like cell line, J774.2, and its Taxol-resistant cell line, J7-T3-1.6, were maintained as previously described. […] Drug-sensitive and vinblastine-resistant human ovarian carcinoma cell lines, SKOV3 and SKVLB, were obtained from Dr. V. Ling, and were maintained as previously described. Both J7-T3-1.6 and SKVLB cells overexpress P-glycoprotein. SKVLB cells were grown in the presence of 1 μM vinblastine. The Taxol-resistant human non-small-cell lung carcinoma cell line, A549-T12, was derived from the drug-sensitive A549 cell line; both cell lines were maintained as previously described.
(§2) For the A549 cell lines, cells were seeded at a density of 1×10^4 cells/mL (A549) or 3×10^4 cells/mL (A549-T12), in triplicate, 6-well plates, and allowed to attach for 24 h. […] The SKOV3 and SKVLB cell lines were assayed in a similar manner. Cells were seeded in triplicate, at a density of 6×10^3 cells/mL (SKOV3) or 12×10^3 cells/mL (SKVLB), in 6-well plates, and incubated with a drug for 6 days. […] J774.2 and J7-T3-1.6 cells were plated at a density of 2×10^4 cells/well, in 96-well plates, and allowed to attach overnight. Serial dilutions of each drug were performed, and the cells were incubated for 72 h. The IC50 was determined using the CellTiter 96™ AQueous nonradioactive cell proliferation assay (Promega, Madison, Wis.), which correlates with the number of live cells. Different methods for determining IC50 values were used, depending on the most accurate method for each particular set of cell lines.

J774.2 = test: cells; format: cell-based, mouse; settings: J774.2, 72 h, mean ± SE; for IC50: read-out: IC50 (drug concentration that inhibits cell division by 50%)
Protocol: as §1, §2

A549-T12 = test: cells; format: cell-based, human; settings: for IC50: read-out: IC50 (drug concentration that inhibits cell division by 50%)
Protocol: as §1, §2

A549 = test: cells; format: cell-based, human; settings: for IC50: read-out: IC50 (drug concentration that inhibits cell division by 50%)
Protocol: as §1, §2

SKOV3 = test: cells; format: cell-based, human; settings: SKOV3, 6 days, mean ± SE; for IC50: read-out: IC50 (drug concentration that inhibits cell division by 50%)
Protocol: as §1, §2

SKVLB = test: cells; format: cell-based, human; settings: for IC50: SKVLB, 6 days, mean ± SE, read-out: IC50 (drug concentration that inhibits cell division by 50%); for Fold resistance (ratio of IC50, SKVLB and SKOV3): after 6 days
Protocol: as §1, §2

A549-T12 cells [1] = format: cell-based, human; settings: 48 h; concentrations as in FIG. 4
Protocol: A549-T12 cells were grown on cover slips and treated with the different compounds for 48 h. Cells were then permeabilized, fixed, and incubated with an α-tubulin antibody, as described below.
A549-T12 cells, which were grown to subconfluency on glass cover slips in the absence of drug or in the presence of different drugs at varying concentrations (FIG. 4), were prepared for immunofluorescence microscopy as previously described, with the following modifications: (a) nonspecific binding was blocked using 10% normal goat serum in PBS for 30 min at 37° C.; (b) cells were incubated with a monoclonal antibody to α-tubulin (Sigma; 1:100 dilution; 5% normal goat serum in PBS), followed by a Cy3-conjugated anti-mouse IgG secondary antibody (Amersham, Arlington Heights, Ill.; 1:1000 dilution); and (c) slides were analyzed using the Zeiss Axioskop microscope (rhodamine filter) at 63× magnification.

A549-T12 cells [2] = format: cell-based, human; settings: for Cell-cycle profile: 48 h, 2 nM Taxol, discodermolide 2 or 6 nM, other drugs as in FIG. 5; for Reversal of the G2-M-phase block induced by Taxol removal: 48 h without Taxol, then 48 h with drug, discodermolide 0.001-24.0 nM, data not shown
Protocol: Cells were incubated with the different agents for 48 h, fixed, stained with propidium iodide, and analyzed by flow cytometry, as described below.
For the drug substitution experiments, A549-T12 cells were seeded at a density of 3×10^4 cells/mL in 75-cm^2 flasks, and treated with various drugs at the indicated concentrations (FIG. 5). After 48 h, both adherent and nonadherent cells were harvested, fixed in 70% ethanol for at least 20 min, permeabilized with 0.1% Triton X-100 in PBS for 3 min, and stained for 30 min at 37° C. with 10 μg/mL of propidium iodide (Sigma) in a PBS solution containing 1 μg/mL of RNase A (Boehringer Mannheim, Indianapolis, Ind.). Cell-cycle analysis was performed using the Becton Dickinson FACScan and the CellQuest program. […] The cells then were prepared as described above.

microtubules = test: In vitro microtubule polymerization assay; format: biochemical; settings: in the absence of GTP
A549 cells = test: Methylene blue growth assay; format: cell-based, human; settings: 8 to 11 days
Protocol: (§3) FIG. 2 illustrates that A549-T12 cells require Taxol for normal growth. A549 and A549-T12 cells were grown in the absence or presence of various concentrations of Taxol for 8 to 11 days. The cells were then stained with methylene blue, as described below.
(§4) Cells were seeded in 24-well plates at a density of 400 cells/well (A549) or 500 cells/well (A549-T12), and treated with different concentrations of Taxol. Following 8 to 11 days of growth, the medium was removed, and cells were stained with 0.5% methylene blue (Sigma) in 50% ethanol for 20 min, then rinsed with distilled water (FIG. 2).

A549-T12 cells [3] = test: Methylene blue growth assay; format: cell-based, human; settings: 8 to 11 days
Protocol: as §3, §4

[4] = Homo sapiens, A549-T12, 72 h, cells maintained in 2 nM Taxol, mean ± SE
[5] = Homo sapiens, A549, 72 h, mean ± SE
[6] = Homo sapiens, Ovarian carcinoma cell, 144 h
[7] = A549-T12, 72 h, cells maintained in 2 nM Taxol, mean ± SE

CC(=O)O[C@H]1C(=O)[C@@]2(C)[C@H]([C@H](OC(=O)c3ccccc3)[C@]3(O)C[C@H](OC(=O)[C@H](O)[C@@H](NC(=O)c4ccccc4)c4ccccc4)C(C)=C1C3(C)C)[C@]1(OC(C)=O)CO[C@@H]1C[C@@H]2O [Taxol, paclitaxel]
IC50 (J7-T3-1.6; Mus musculus): 18000 nM | Fold resistance (ratio of IC50 J7-T3-1.6 to J774.2) (J7-T3-1.6): 268.7 fold | IC50 (J774.2; Mus musculus): 67 ± 7 nM | IC50 (A549-T12; [4]): 18.7 ± 0.9 nM | IC50 (A549; [5]): 2 ± 0.14 nM | IC50 (SKOV3; Homo sapiens, SK-OV-3, 144 h): 2 ± 0.1 nM | IC50 (drug concentration that inhibits cell division by 50%) (SKOV3): decreased but similar responses | IC50 (SKVLB; [6]): 13300 nM | Fold resistance (ratio of IC50, SKVLB and SKOV3) (SKVLB): 6,666.5 fold | Microtubule cytoskeleton / ability to substitute for Taxol (A549-T12 cells [1]): normal microtubule cytoskeleton | Cell-cycle profile (A549-T12 cells [2]): normal cell-cycle profile | Reversal of the G2-M-phase block induced by Taxol removal (A549-T12 cells [2]): return of a normal cell-cycle profile | Assembly of microtubules (microtubules): enhanced the assembly of stable microtubules | Cell growth (A549 cells; 6 nM Taxol): cytotoxic | Cell growth (A549 cells; subnanomolar concentrations of Taxol): unaffected | Cell growth (A549-T12 cells [3]; 6 nM Taxol): grew normally | Taxol level required by the cell line for normal growth (A549-T12 cells [3]): 2 to 6 nM

C/C(=C\c1csc(C)n1)[C@@H]1C[C@@H]2O[C@@H]2CCC[C@H](C)[C@H](O)[C@@H](C)C(=O)C(C)(C)[C@@H](O)CC(=O)O1 [EpoA, epothilone A]
IC50 (J7-T3-1.6): 170 ± 14 nM | Fold resistance (ratio of IC50 J7-T3-1.6 to J774.2) (J7-T3-1.6): 16 fold | Fold resistance (ratio of IC50 J7-T3-1.6 to J774.2) (J7-T3-1.6; listed as epothilone A): low resistance | IC50 (J774.2): 10.6 ± 2 nM | Fold resistance (ratio of IC50 A549-T12 to A549) (A549-T12; 72 h): 5.3 fold | Fold resistance (ratio of IC50 A549-T12 to A549) (A549-T12; 72 h, listed as epothilone A): cross-resistance | IC50 (A549-T12; [7]): 34 ± 3.1 nM | IC50 (drug concentration that inhibits cell division by 50%) (A549; A549, 72 h, mean ± SE): comparable activities | IC50 (A549; A549, 72 h, mean ± SE): 6.4 ± 2 nM | IC50 (drug concentration that inhibits cell division by 50%) (SKOV3): decreased but similar responses | IC50 (SKOV3): 10.3 ± 4.5 nM | IC50 (SKVLB): 190 ± 14 nM | Fold resistance (ratio of IC50, SKVLB and SKOV3) (SKVLB): 18.5 fold | Fold resistance (ratio of IC50, SKVLB and SKOV3) (SKVLB; listed as epothilone A): low-level cross-resistance | Microtubule cytoskeleton / ability to substitute for Taxol (A549-T12 cells [1]): normal microtubule cytoskeleton | Cell-cycle profile (A549-T12 cells [2]): normal cell-cycle profile | Reversal of the G2-M-phase block induced by Taxol removal (A549-T12 cells [2]): return of a normal cell-cycle profile

C/C(=C\c1csc(C)n1)[C@@H]1C[C@@H]2O[C@]2(C)CCC[C@H](C)[C@H](O)[C@@H](C)C(=O)C(C)(C)[C@@H](O)CC(=O)O1 [EpoB, epothilone B]
IC50 (J7-T3-1.6): 12 ± 4 nM | Fold resistance (ratio of IC50 J7-T3-1.6 to J774.2) (J7-T3-1.6): 30 fold | Fold resistance (ratio of IC50 J7-T3-1.6 to J774.2) (J7-T3-1.6; listed as epothilone B): low resistance | IC50 (drug concentration that inhibits cell division by 50%) (J774.2): most sensitive | IC50 (J774.2): 0.4 ± 0.1 nM | Fold resistance (ratio of IC50 A549-T12 to A549) (A549-T12; 72 h): 4.7 fold | Fold resistance (ratio of IC50 A549-T12 to A549) (A549-T12; 72 h, listed as epothilone B): cross-resistance | IC50 (A549-T12; [7]): 3.3 ± 0.72 nM | IC50 (drug concentration that inhibits cell division by 50%) (A549; A549, 72 h, mean ± SE): more potent | IC50 (A549; A549, 72 h, mean ± SE): 0.7 ± 0.1 nM | IC50 (drug concentration that inhibits cell division by 50%) (SKOV3): highest sensitivity | IC50 (SKOV3): 0.5 ± 0.09 nM | IC50 (SKVLB): 9.5 ± 2.1 nM | Fold resistance (ratio of IC50, SKVLB and SKOV3) (SKVLB): 19.0 fold | Fold resistance (ratio of IC50, SKVLB and SKOV3) (SKVLB; listed as epothilone B): low-level cross-resistance | Microtubule cytoskeleton / ability to substitute for Taxol (A549-T12 cells [1]): normal microtubule cytoskeleton | Cell-cycle profile (A549-T12 cells [2]): normal cell-cycle profile | Reversal of the G2-M-phase block induced by Taxol removal (A549-T12 cells [2]): return of a normal cell-cycle profile

CO[C@]12C=C[C@](C)(O1)[C@@H](OC(=O)/C=C/c1cn(C)cn1)C[C@H]1C(C)=CC[C@H](C(C)C)[C@H]1/C=C\2CO[C@@H]1OC[C@@H](O)[C@@H](O)[C@@H]1OC(C)=O [Eleu, eleutherobin]
IC50 (J7-T3-1.6; Mus musculus): > 5000 nM | Fold resistance (ratio of IC50 J7-T3-1.6 to J774.2) (J7-T3-1.6): >12.7 fold | IC50 (drug concentration that inhibits cell division by 50%) (J774.2): quite insensitive | IC50 (J774.2; Mus musculus): 394 ± 5.8 nM | IC50 (A549-T12; Homo sapiens, 72 h): 69 ± 11.3 nM | IC50 (drug concentration that inhibits cell division by 50%) (A549): comparable activities | IC50 (A549; Homo sapiens, A549, 72 h): 14 ± 2.8 nM | IC50 (SKOV3; Homo sapiens, SK-OV-3, 144 h): 8.2 ± 3.8 nM | IC50 (drug concentration that inhibits cell division by 50%) (SKOV3): decreased but similar responses | IC50 (SKVLB; [6]): > 5000 nM | Fold resistance (ratio of IC50, SKVLB and SKOV3) (SKVLB): >609.8 fold | Fold resistance (ratio of IC50, SKVLB and SKOV3) (SKVLB; listed as eleutherobin): definite cross-resistance | Microtubule cytoskeleton / ability to substitute for Taxol (A549-T12 cells [1]): normal microtubule cytoskeleton | Cell-cycle profile (A549-T12 cells [2]): normal cell-cycle profile | Reversal of the G2-M-phase block induced by Taxol removal (A549-T12 cells [2]): return of a normal cell-cycle profile | Assembly of microtubules (microtubules): enhanced the assembly of stable microtubules

CC[C@]1(O)C[C@@H]2CN(CCc3c([nH]c4ccccc34)[C@@](C(=O)OC)(c3cc4c(cc3OC)N(C)[C@H]3[C@@](O)(C(=O)OC)[C@H](OC(C)=O)[C@]5(CC)C=CCN6CC[C@]43[C@@H]65)C2)C1 [VBL, vinblastine]
IC50 (J7-T3-1.6; Mus musculus): 767 ± 351 nM | Fold resistance (ratio of IC50 J7-T3-1.6 to J774.2) (J7-T3-1.6): 127.8 fold | Fold resistance (ratio of IC50 J7-T3-1.6 to J774.2) (J7-T3-1.6; listed as vinblastine): significant cross-resistance | IC50 (J774.2; Mus musculus): 6 ± 2.7 nM | Fold resistance (ratio of IC50 A549-T12 to A549) (A549-T12; 72 h): 1.0 fold | Fold resistance (ratio of IC50 A549-T12 to A549) (A549-T12; 72 h, listed as vinblastine): no cross-resistance | IC50 (A549-T12; [4]): 1.8 ± 0.18 nM | IC50 (A549; [5]): 1.8 nM | IC50 (SKOV3; Homo sapiens, SK-OV-3, 144 h): 1.1 ± 0.1 nM | IC50 (drug concentration that inhibits cell division by 50%) (SKOV3): highest sensitivity | IC50 (SKVLB; [6]): 1880 nM | Fold resistance (ratio of IC50, SKVLB and SKOV3) (SKVLB): 1,709.4 fold | Microtubule cytoskeleton / ability to substitute for Taxol (A549-T12 cells [1]): Neither discodermolide nor vinblastine was able to substitute for Taxol | Cell-cycle profile (A549-T12 cells [2]): mitotic block | Reversal of the G2-M-phase block induced by Taxol removal (A549-T12 cells [2]): irreversible
